Test results taken from patent US10221163B2 (priority 2015, dated 2019).
Like-named read-outs stand apart in the source and are kept apart here.

Columns and labels:
VIM-1 = VIM-1 (Pseudomonas aeruginosa (strain ATCC 15692 / DSM 22644 / CIP 104116 / JCM 14847 / LMG 12228 / 1C / PRS 101 / PAO1), UniProt A0A0F7KYQ8); assay: biochemical; settings: CCF2-FA substrate, 30 pM enzyme, 2 hours at 25° C.
In short: (§1)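 Fluorescence assay of metallo-β-lactamase activity using CCF2-FA, a cephalosporin-linked 7-hydroxycoumarin–fluorescein substrate. Inhibitor, enzyme and substrate were incubated together for 2 hours at 25° C. IC50 came from a 4-parameter fit of inhibition versus inhibitor concentration.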

[1] = tested on: Pseudomonas aeruginosa MB9798 vs MB9799; settings: fold difference between efflux+ (MB9798) and efflux− (MB9799) strains; imipenem at 2 μg/mL
In short: (§2)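 Microbroth MIC tests in PAO1-background strains with fixed imipenem and/or ceftazidime, usually at the CLSI breakpoint, plus fixed class A/C β-lactamase inhibitor against AmpC. MBL inhibitor titrated; concentration restoring susceptibility recorded and compared as fold difference between efflux+ MB9798 and efflux− MB9799.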

[2] = tested on: Serratia marcescens expressing IMP-1 (CL5741); format: cell-based; settings: IMP-1 strain CL5741, with imipenem 1 μg/ml, 95% inhibition of growth
In short: (§3)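 Colonies grown overnight on blood agar at 35° C were suspended in saline, diluted 1:100 into 1.1×CAMHB and dispensed. Imipenem was added to 1 μg/ml, then test compound. After 22 hours to 24 hours at 35° C, absorbance was recorded.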

[3] = tested on: Escherichia coli expressing NDM-1 (CLB30005, CLB30016); format: cell-based; settings: NDM-1 strain, with imipenem 1 μg/ml, 95% inhibition of growth
In short: as §3

[4] = tested on: Klebsiella pneumoniae expressing VIM-1 (IHMA599644); format: cell-based; settings: VIM-1 strain IHMA599644, with imipenem 1 μg/ml, 95% inhibition of growth
In short: as §3

[5] = tested on: Pseudomonas aeruginosa efflux− (MB9799), IMP-1; format: cell-based; settings: efflux− MB9799; imipenem at 2 μg/mL; in the presence of a class A, C, D serine β-lactamase inhibitor closely related to relebactam
In short: as §2

IMP-1 = IMP-1 (Serratia marcescens, UniProt P52699); assay: biochemical; format: biochemical; settings: fluorescence assay, CCF2-FA substrate, 2 pM enzyme, 2 hours at 25° C.; read-out: IMP-1 IC50
Sequence of IMP-1 (P52699 whole entry, looked up, species assumed): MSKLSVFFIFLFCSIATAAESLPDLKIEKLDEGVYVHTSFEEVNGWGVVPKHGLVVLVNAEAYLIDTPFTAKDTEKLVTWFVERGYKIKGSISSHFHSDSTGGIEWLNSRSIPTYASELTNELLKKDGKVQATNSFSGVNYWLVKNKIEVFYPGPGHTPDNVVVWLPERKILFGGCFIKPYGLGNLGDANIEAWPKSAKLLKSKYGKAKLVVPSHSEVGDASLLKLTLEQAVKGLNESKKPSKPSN
In short: as §1

NDM-1 = NDM-1 (Klebsiella pneumoniae, UniProt C7C422); assay: biochemical; format: biochemical; settings: fluorescence assay, CCF2-FA substrate, 1 pM enzyme, 2 hours at 25° C.; read-out: NDM-1 IC50
Sequence of NDM-1 (C7C422 whole entry, looked up, species assumed): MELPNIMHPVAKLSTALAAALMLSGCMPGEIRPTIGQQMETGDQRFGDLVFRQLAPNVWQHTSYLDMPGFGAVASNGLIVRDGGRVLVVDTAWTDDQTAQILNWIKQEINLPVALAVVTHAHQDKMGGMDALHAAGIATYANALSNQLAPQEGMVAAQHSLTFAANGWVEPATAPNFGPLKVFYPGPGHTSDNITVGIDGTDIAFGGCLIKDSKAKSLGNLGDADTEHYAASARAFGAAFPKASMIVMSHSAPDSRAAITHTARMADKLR
In short: as §1

[6] = tested on: Pseudomonas aeruginosa efflux+ (MB9798), IMP-1; format: cell-based; parameters: Concentration of metallo-β-lactamase inhibitor which restores susceptibility of efflux + (MB9798) strain to imipenem: unit not given here; settings: efflux+ MB9798; imipenem at 2 μg/mL; in the presence of a class A, C, D serine β-lactamase inhibitor closely related to relebactam
In short: as §2

[7] = fluorescence assay, read-out: VIM-1 IC50

SMILES: NC[C@@H](CO)NS(=O)(=O)c1ccc(-c2ccc(N)nc2)c(-c2nn[nH]n2)c1S(N)(=O)=O [Example 409]
- IC50 (VIM-1; [7]): 184 pM
- Efflux ratio [1]: 1.00
- Serratia marcescens MITC95 [2]: 1.563 µM
- Escherichia coli MITC95 [3]: 0.1953 µM
- Klebsiella pneumoniae MITC95 [4]: 3.125 µM
- Concentration of metallo-β-lactamase inhibitor which restores susceptibility of efflux − (MB9799) strain to imipenem [5]: 1.563
- IC50 (IMP-1): 170 pM
- IC50 (NDM-1): 112 pM
- Concentration of metallo-β-lactamase inhibitor which restores susceptibility of efflux + (MB9798) strain to imipenem [6]: 1.563

SMILES: Nc1ccc(-c2ccc(S(=O)(=O)N[C@H]3CNC[C@H]3O)c(S(N)(=O)=O)c2-c2nn[nH]n2)cn1 [Example 410]
- IC50 (VIM-1; [7]): 374 pM
- Efflux ratio [1]: 1.00
- Serratia marcescens MITC95 [2]: 0.7813 µM
- Escherichia coli MITC95 [3]: 0.3906 µM
- Klebsiella pneumoniae MITC95 [4]: 1.563 µM
- Concentration of metallo-β-lactamase inhibitor which restores susceptibility of efflux − (MB9799) strain to imipenem [5]: 0.7813
- IC50 (IMP-1): 682 pM
- IC50 (NDM-1): 322 pM
- Concentration of metallo-β-lactamase inhibitor which restores susceptibility of efflux + (MB9798) strain to imipenem [6]: 0.7813

SMILES: Nc1ccc(-c2ccc(S(=O)(=O)N[C@H]3CN[C@H](CO)C3)c(S(N)(=O)=O)c2-c2nn[nH]n2)cn1 [Example 411]
- IC50 (VIM-1; [7]): 177 pM
- Efflux ratio [1]: 1.00
- Serratia marcescens MITC95 [2]: 1.563 µM
- Escherichia coli MITC95 [3]: 0.7813 µM
- Klebsiella pneumoniae MITC95 [4]: 3.125 µM
- Concentration of metallo-β-lactamase inhibitor which restores susceptibility of efflux − (MB9799) strain to imipenem [5]: 1.563
- IC50 (IMP-1): 408 pM
- IC50 (NDM-1): 117 pM
- Concentration of metallo-β-lactamase inhibitor which restores susceptibility of efflux + (MB9798) strain to imipenem [6]: 1.563

SMILES: NS(=O)(=O)c1c(S(=O)(=O)N[C@@H]2CNC[C@@H]2O)ccc(-c2cccc3[nH]nnc23)c1-c1nn[nH]n1 [Example 412]
- IC50 (VIM-1; [7]): 321 pM
- Efflux ratio [1]: 0.50
- Serratia marcescens MITC95 [2]: 3.125 µM
- Escherichia coli MITC95 [3]: 3.125 µM
- Klebsiella pneumoniae MITC95 [4]: 6.25 µM
- Concentration of metallo-β-lactamase inhibitor which restores susceptibility of efflux − (MB9799) strain to imipenem [5]: 3.125
- IC50 (IMP-1): 2570 pM
- IC50 (NDM-1): 108 pM
- Concentration of metallo-β-lactamase inhibitor which restores susceptibility of efflux + (MB9798) strain to imipenem [6]: 1.563

SMILES: NC[C@H](N)CNS(=O)(=O)c1ccc(-c2ccc(N)nc2)c(-c2nn[nH]n2)c1S(N)(=O)=O [Example 415]
- IC50 (VIM-1; [7]): 425 pM
- Efflux ratio [1]: 1.00
- Serratia marcescens MITC95 [2]: 1.172 µM
- Escherichia coli MITC95 [3]: 0.1953 µM
- Klebsiella pneumoniae MITC95 [4]: 3.125 µM
- Concentration of metallo-β-lactamase inhibitor which restores susceptibility of efflux − (MB9799) strain to imipenem [5]: 1.563
- IC50 (IMP-1): 801 pM
- IC50 (NDM-1): 361 pM
- Concentration of metallo-β-lactamase inhibitor which restores susceptibility of efflux + (MB9798) strain to imipenem [6]: 1.563

SMILES: NC[C@@H](N)CNS(=O)(=O)c1ccc(-c2ccc(N)nc2)c(-c2nn[nH]n2)c1S(N)(=O)=O [Example 416]
- IC50 (VIM-1; [7]): 680 pM
- Efflux ratio [1]: 1.00
- Serratia marcescens MITC95 [2]: 1.563 µM
- Escherichia coli MITC95 [3]: 0.3906 µM
- Klebsiella pneumoniae MITC95 [4]: 6.25 µM
- Concentration of metallo-β-lactamase inhibitor which restores susceptibility of efflux − (MB9799) strain to imipenem [5]: 3.125
- IC50 (IMP-1): 1340 pM
- IC50 (NDM-1): 918 pM
- Concentration of metallo-β-lactamase inhibitor which restores susceptibility of efflux + (MB9798) strain to imipenem [6]: 3.125

SMILES: NC[C@H](O)CNS(=O)(=O)c1ccc(-c2ccc3nccn3c2)c(-c2nn[nH]n2)c1S(N)(=O)=O [Example 418]
- IC50 (VIM-1; [7]): 113 pM
- Efflux ratio [1]: 2.00
- Serratia marcescens MITC95 [2]: 0.7813 µM
- Escherichia coli MITC95 [3]: 0.3906 µM
- Klebsiella pneumoniae MITC95 [4]: 1.563 µM
- Concentration of metallo-β-lactamase inhibitor which restores susceptibility of efflux − (MB9799) strain to imipenem [5]: 0.7813
- IC50 (IMP-1): 834 pM
- IC50 (NDM-1): 152 pM
- Concentration of metallo-β-lactamase inhibitor which restores susceptibility of efflux + (MB9798) strain to imipenem [6]: 1.563

SMILES: NC[C@@H](O)CNS(=O)(=O)c1ccc(-c2ccc3nccn3c2)c(-c2nn[nH]n2)c1S(N)(=O)=O [Example 420]
- IC50 (VIM-1; [7]): 125 pM
- Efflux ratio [1]: 2.00
- Serratia marcescens MITC95 [2]: 1.563 µM
- Escherichia coli MITC95 [3]: 0.3906 µM
- Klebsiella pneumoniae MITC95 [4]: 3.125 µM
- Concentration of metallo-β-lactamase inhibitor which restores susceptibility of efflux − (MB9799) strain to imipenem [5]: 0.7813
- IC50 (IMP-1): 974 pM
- IC50 (NDM-1): 230 pM
- Concentration of metallo-β-lactamase inhibitor which restores susceptibility of efflux + (MB9798) strain to imipenem [6]: 1.563

SMILES: C[C@@H](N)CNS(=O)(=O)c1ccc(-c2ccc3nccn3c2)c(-c2nn[nH]n2)c1S(N)(=O)=O [Example 423]
- IC50 (VIM-1; VIM-1 IC50, fluorescence assay): 180 pM
- Efflux ratio [1]: 4.00
- Serratia marcescens MITC95 [2]: 0.7813 µM
- Escherichia coli MITC95 [3]: 0.3906 µM
- Klebsiella pneumoniae MITC95 [4]: 1.563 µM
- Concentration of metallo-β-lactamase inhibitor which restores susceptibility of efflux − (MB9799) strain to imipenem [5]: 0.7813
- IC50 (IMP-1): 1150 pM
- IC50 (NDM-1): 303 pM
- Concentration of metallo-β-lactamase inhibitor which restores susceptibility of efflux + (MB9798) strain to imipenem [6]: 3.125

SMILES: Nc1nc2c(-c3ccc(S(=O)(=O)N[C@@H]4CNC[C@H]4N)c(S(N)(=O)=O)c3-c3nn[nH]n3)cccc2[nH]1 [Example 424]
- IC50 (VIM-1; VIM-1 IC50, fluorescence assay): 301 pM
- Efflux ratio [1]: 1.00
- Serratia marcescens MITC95 [2]: 1.563 µM
- Escherichia coli MITC95 [3]: 0.7813 µM
- Klebsiella pneumoniae MITC95 [4]: 1.563 µM
- Concentration of metallo-β-lactamase inhibitor which restores susceptibility of efflux − (MB9799) strain to imipenem [5]: 1.563
- IC50 (IMP-1): 814 pM
- IC50 (NDM-1): 87 pM
- Concentration of metallo-β-lactamase inhibitor which restores susceptibility of efflux + (MB9798) strain to imipenem [6]: 1.563

SMILES: NC[C@@H]1C[C@@H](NS(=O)(=O)c2ccc(-c3cccc4[nH]c(N)nc34)c(-c3nn[nH]n3)c2S(N)(=O)=O)CN1 [Example 425, 4-(2-amino-1H-benzo[d]imidazol-4-yl)-N^1-((3R,5S)-5-(aminomethyl)pyrrolidin-3-yl)-3-(2H-tetrazol-5-yl)benzene-1,2-disulfonamide]
- IC50 (VIM-1; [7]): 160 pM
- Efflux ratio [1]: 1.00
- Serratia marcescens MITC95 [2]: 3.125 µM
- Escherichia coli MITC95 [3]: 0.7813 µM
- Klebsiella pneumoniae MITC95 [4]: 3.125 µM
- Concentration of metallo-β-lactamase inhibitor which restores susceptibility of efflux − (MB9799) strain to imipenem [5]: 1.563
- IC50 (IMP-1): 886 pM
- IC50 (NDM-1): 41.9 pM
- Concentration of metallo-β-lactamase inhibitor which restores susceptibility of efflux + (MB9798) strain to imipenem [6]: 1.563

SMILES: NC[C@@H](CO)NS(=O)(=O)c1ccc(-c2cccc3[nH]c(N)nc23)c(-c2nnn[nH]2)c1S(N)(=O)=O [Example 426, (S)-4-(2-Amino-1H-benzo[d]imidazol-4-yl)-N^1-(1-amino-3-hydroxypropan-2-yl)-3-(1H-tetrazol-5-yl)benzene-1,2-disulfonamide]
- IC50 (VIM-1; [7]): 168 pM
- Efflux ratio [1]: 0.50
- Serratia marcescens MITC95 [2]: 0.7813 µM
- Escherichia coli MITC95 [3]: 0.3906 µM
- Klebsiella pneumoniae MITC95 [4]: 1.563 µM
- Concentration of metallo-β-lactamase inhibitor which restores susceptibility of efflux − (MB9799) strain to imipenem [5]: 0.7813
- IC50 (IMP-1): 273 pM
- IC50 (NDM-1): 32.2 pM
- Concentration of metallo-β-lactamase inhibitor which restores susceptibility of efflux + (MB9798) strain to imipenem [6]: 0.3906

SMILES: NC[C@H](CO)NS(=O)(=O)c1ccc(-c2cccc3nc(N)[nH]c23)c(-c2nn[nH]n2)c1S(N)(=O)=O [Example 427]
- IC50 (VIM-1; [7]): 548 pM
- Efflux ratio [1]: 1.00
- Serratia marcescens MITC95 [2]: 0.7813 µM
- Escherichia coli MITC95 [3]: 0.3906 µM
- Klebsiella pneumoniae MITC95 [4]: 1.563 µM
- Concentration of metallo-β-lactamase inhibitor which restores susceptibility of efflux − (MB9799) strain to imipenem [5]: 0.7813
- IC50 (IMP-1): 2610 pM
- IC50 (NDM-1): 221 pM
- Concentration of metallo-β-lactamase inhibitor which restores susceptibility of efflux + (MB9798) strain to imipenem [6]: 0.7813
